# pEC50: −log10 of the molar value.
# Tests used:
# [1] = molecular target: T1, Peroxisome proliferator-activated receptor alpha (Homo sapiens) (UniProt Q07869); experiment: Agonist activity at human PPARalpha by transactivation assay relative to NNC61-4655; format: functional
# T1 sequence (whole entry): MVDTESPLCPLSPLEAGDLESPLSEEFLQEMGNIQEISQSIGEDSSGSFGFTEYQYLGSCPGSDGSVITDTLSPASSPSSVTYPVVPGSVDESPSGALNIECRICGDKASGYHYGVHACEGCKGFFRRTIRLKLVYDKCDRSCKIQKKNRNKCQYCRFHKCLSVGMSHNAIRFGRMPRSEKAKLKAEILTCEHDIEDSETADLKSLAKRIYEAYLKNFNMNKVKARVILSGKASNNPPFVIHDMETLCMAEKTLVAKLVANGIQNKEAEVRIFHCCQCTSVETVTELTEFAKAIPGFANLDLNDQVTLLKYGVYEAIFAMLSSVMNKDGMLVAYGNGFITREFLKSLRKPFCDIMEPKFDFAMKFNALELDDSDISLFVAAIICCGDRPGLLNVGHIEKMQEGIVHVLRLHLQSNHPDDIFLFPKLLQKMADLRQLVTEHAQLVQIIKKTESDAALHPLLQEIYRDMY
# [2] = molecular target: T2, Peroxisome proliferator-activated receptor delta (Homo sapiens, UniProt Q03181)
# T2 sequence (Q03181 whole entry): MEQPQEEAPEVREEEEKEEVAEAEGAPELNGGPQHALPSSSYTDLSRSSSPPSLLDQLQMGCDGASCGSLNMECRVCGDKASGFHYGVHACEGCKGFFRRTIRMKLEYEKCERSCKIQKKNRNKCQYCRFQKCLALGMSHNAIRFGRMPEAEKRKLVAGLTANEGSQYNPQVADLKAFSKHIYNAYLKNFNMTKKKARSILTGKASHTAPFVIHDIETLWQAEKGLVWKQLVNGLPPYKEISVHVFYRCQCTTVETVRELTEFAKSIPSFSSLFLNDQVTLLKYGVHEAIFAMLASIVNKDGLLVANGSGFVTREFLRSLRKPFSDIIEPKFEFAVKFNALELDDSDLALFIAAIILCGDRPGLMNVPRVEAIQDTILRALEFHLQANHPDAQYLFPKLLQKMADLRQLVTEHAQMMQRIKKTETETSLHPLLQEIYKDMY
# [3] = molecular target: T3, Peroxisome proliferator-activated receptor alpha (Homo sapiens, UniProt Q07869); experiment: Agonist activity at human PPARalpha by transactivation assay; format: functional
# T3 sequence (Q07869 whole entry): T1 sequence (whole entry)
# [4] = molecular target: T4, Peroxisome proliferator-activated receptor gamma (Homo sapiens, UniProt P37231); format: functional
# T4 sequence (P37231 whole entry): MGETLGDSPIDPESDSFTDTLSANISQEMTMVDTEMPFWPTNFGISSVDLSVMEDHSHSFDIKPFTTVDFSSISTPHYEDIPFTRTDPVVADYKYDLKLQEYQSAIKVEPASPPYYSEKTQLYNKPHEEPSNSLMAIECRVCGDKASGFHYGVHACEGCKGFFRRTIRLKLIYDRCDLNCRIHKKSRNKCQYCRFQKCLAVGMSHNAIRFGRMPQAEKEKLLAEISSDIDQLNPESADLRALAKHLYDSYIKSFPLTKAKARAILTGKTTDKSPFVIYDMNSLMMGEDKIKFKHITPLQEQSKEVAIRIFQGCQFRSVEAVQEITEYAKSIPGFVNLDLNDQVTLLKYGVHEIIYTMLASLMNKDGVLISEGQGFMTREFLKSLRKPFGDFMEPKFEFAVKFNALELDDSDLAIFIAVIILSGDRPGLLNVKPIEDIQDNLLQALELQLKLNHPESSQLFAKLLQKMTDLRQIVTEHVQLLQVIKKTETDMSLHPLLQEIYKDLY
Compound,Activity [1],pEC50 [2],pEC50 [3],pEC50 [4]
O=C(O)COc1ccc(Sc2cc(C#CCN3CCOCC3)nc(C#Cc3ccc(C(F)(F)F)cc3)c2)c2c1CCC2,< 10%,6.89,–,–
Cc1cc(SCc2sc(-c3ccc(C(F)(F)F)cc3)nc2C)ccc1OCC(=O)O,68%,–,–,–
Cc1cc(Sc2cc(C#CCN3CCOCC3)nc(C#Cc3ccc(C(F)(F)F)cc3)c2)ccc1OCC(=O)O,50%,7.30,7.00,5.26

# — ChEMBL document CHEMBL1140646, “Design of a partial PPARdelta agonist” (Bioorg Med Chem Lett, 2007)
